Molecules are shown by their SMILES. Where a SMILES comes first, the peptide text is derived from it. [ ]: non-standard residue; d: D form. The star is where a group is joined. 5FAM = O=C1OC2(c3ccc(O)cc3Oc3cc(O)ccc32)c2ccc(C(=O)*)cc21; Lys(Me3) = C[N+](C)(C)CCCC[C@H](N)C(=O)O

A word on the Kd: it is the equilibrium constant for the complex coming apart.

In the assay the target is T1, CDYL2 chromo (Homo sapiens, UniProt Q8N8U2).
T1 construct: 1-75; made in house; host or cells: E. coli BL21
T1 sequence (Q8N8U2 1-75): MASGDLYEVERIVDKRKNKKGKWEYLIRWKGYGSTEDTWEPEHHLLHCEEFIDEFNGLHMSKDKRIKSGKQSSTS
Kind of assay: Fluorescence polarization assay, CDYL2 chromo. The assay is classed as binding. The note with it: 10 nM N-terminal FAM peptide, 25 mM HEPES pH 7.5, 100 mM NaCl, 0.05% NP-40, average of 4 measurements from 2 independent experiments, error SD (Figure 4C). As for the experimental part:
Plasmids encoding N-terminal GST fusions of each reader domain (Supplementary Table S1) were transformed into BL21 E. coli and protein expression was induced with 0.5 mM IPTG at 16°C for 6–16 h. Induced bacterial pellets were suspended in 30 mL cold 1× PBS supplemented with 1 mM DTT and 1 mM PMSF. Next, bacteria were incubated with lysozyme (Thermo #89833 LOT#ta262343) and 1 μL of Pierce universal nuclease (Pierce #88702 LOT#00775219) on ice for 30 min followed by 3 rounds of sonication (30 s sonication with 10 s rest, all on ice) using a Qsonica ultrasonic processor (500 W 20 kHz with 1/8” microtip) at 40% amplitude. Lysed bacteria were centrifuged at 38465 rcf for 45 min at 4°C. Cleared supernatant was incubated with 5 mL of Glutathione resin (Thermo #16101 LOT#UD285112) with rotation at 4°C for 16 h. Bound protein was washed 3× with 10 mL cold 1× PBS and eluted twice with 10 mL of 25 mM HEPES pH 7.5, 10 mM L-glutathione (Sigma), and 100 mM NaCl. Protein was concentrated by centrifugation at 1,500 rpm on a Sorvall Legend X1 centrifuge in Amicon Ultra-15 centrifugal filter units (UFC#903024). Protein was resuspended in 25 mM HEPES pH 7.5 and 100 mM NaCl and concentrated by centrifugation as above three times. Protein was quantified by absorbance measurement at 280 nm divided by the computed extinction coefficient (ExPASy) ([Gasteiger et al., 2003]) of the GST-tagged protein domain.
Peptides functionalized with N-terminal 5-carboxyfluorescin (FAM) were synthesized by Genscript. All 7-mer motifs were synthesized with flanking glycines to mimic the Kme-OPL design. Binding assays were done in black 384 well plates (Corning #3575). […] Polarization was measured on a Synergy Neo fluorescence plate reader (Biotek) with a 485 ± 10 nm excitation filter and a 528 ± 10 nm emission filter. […] Anisotropy units (A) were calculated using the equation A = (2P)/(3-P). Dissociation constants were determined by non-linear regression analysis of anisotropy curves by specific binding with Hill slope in GraphPad version 8.3.0.
A general note: Polarisation of emitted light reports the rotation of a fluorescent probe.
As for `C[C@H](NC(=O)[C@H](CCCCN)NC(=O)CN)C(=O)N[C@@H](CCCCN)C(=O)N[C@@H](CCCC[N+](C)(C)C)C(=O)N[C@H](C(=O)NCC(=O)N[C@@H](CCCCN)C(=O)NCC(=O)O)[C@@H](C)O` [GKAK(Kme3)TGKG] (H-GKAK[Lys(Me3)]TGKG-OH), the Kd amounted to 3.6 ± 0.73 µM. The value for `C[C@H](NC(=O)[C@H](Cc1c[nH]c2ccccc12)NC(=O)CN)C(=O)N[C@@H](Cc1ccc(O)cc1)C(=O)N[C@@H](CCCC[N+](C)(C)C)C(=O)N[C@H](C(=O)NCC(=O)N[C@@H](CCCCN)C(=O)NCC(=O)O)[C@@H](C)O` [GWAY(Kme3)TGKG] (H-GWAY[Lys(Me3)]TGKG-OH) was 0.1 ± 0.0066 µM.

In the case of `C[C@H](NC(=O)[C@@H](NC(=O)CNC(=O)c1ccc2c(c1)C(=O)OC21c2ccc(O)cc2Oc2cc(O)ccc21)[C@@H](C)O)C(=O)N[C@@H](CCCNC(=N)N)C(=O)N[C@@H](CCCC[N+](C)(C)C)C(=O)N[C@@H](CO)C(=O)N[C@H](C(=O)NCC(=O)NCC(=O)O)[C@@H](C)O` [GTAR(Kme3)STGG] (5FAM-GTAR[Lys(Me3)]STGG-OH), the Kd was found to be 18.4 ± 6 µM.

Values taken from PMC7160673, “A Degenerate Peptide Library Approach to Reveal Sequence Determinants of Methyllysine-Driven Protein Interactions” (Frontiers in Cell and Developmental Biology, 2020).
